Structures can show the parent of a compound that is named as a salt.
Key:
[1] = in water; cited from earlier work
[2] = Chloride-induced gelling of sertraline salt solutions; assay type: physicochemical
[3] = Precipitation studies with sertraline base in 0.1N HCl and phosphate buffered saline pH 5.8 (Example 4)
Description: Solution (a) is a simulated gastric fluid, and solution (b) is a simulated intestinal fluid.
PEG400 is miscible with aqueous media, while Capmul®-MCM and safflower oil are not. One milliliter of the test solution was added to 10 mL of (a) 0.1N HCl solution and (b) phosphate buffered saline (PBS) pH 5.8 and was stirred vigorously.
Mobile phase: per liter of mobile phase: 270 mL of tetrahydrofuran, 230 mL of methanol and 400 mL of buffer. The buffer consisted of 25 mM triethylamine phosphate. It was prepared by adding 1.7 mL of phosphoric acid and 3.5 mL of tirethylamine to 1 liter of water.

[4] = Dilution of PEG-400 or polysorbate-80 solution of sertraline base into 0.9% NaCl (Example 3); assay type: physicochemical
Description: One ml of this test solution was added to 15 ml normal saline (0.9% NaCl, pH 4.2), and was stirred vigorously.

[5] = Equilibrium solubility of sertraline base and hydrochloride in selected vehicles (Table 4-4); assay type: physicochemical; conditions: vehicle Miglyol 810
Source text: Water-immiscible vehicles do have this capacity.

[6] = human, in vivo
clinical = conditions: human, in vivo, po
[7] = dosed as Zoloft tablets; cited from earlier work
[8] = Human crossover pharmacokinetics of 200 mg sertraline delivered to various portions of the gastrointestinal tract (Example 1); assay type: in vivo; conditions: Group A
Description: Dosing was via (1) oral tablets, or (2) infusion of a solution through a nasoenteric tube into the stomach, duodenum, or ileocecal region of the small intestine, or (3) infusion into the transverse colon via anal intubation.
The infusions were administered as a 2 mg/ml solution at a rate of 20 ml/min for 5 min.
Analysis was carried out by capillary gas chromatography with electron capture detection. […] Tmax is the time at which Cmax is achieved.

physchem = conditions: simulated gastric fluid

Q: For vitamin E, which Aqueous solubility [1] is on record?
A: practically insoluble in water

Q: Which “State of saturated solution at physiological chloride concentrations” value [2] does the source give for sertraline acetate here?
A: thick pasty solid which does not flow

Q: With CN[C@H]1CC[C@@H](c2ccc(Cl)c(Cl)c2)c2ccccc21 [Free base, sertraline free base] as the compound, how does the “Concentration of sertraline in aqueous layer” value (“Concentration of sertraline” below) ([3]; Capmul MCM 50 mgA/mL, 1 mL into 10 mL phosphate buffered saline pH 5.8, 120 minutes) read?
A: 0.16 mgA/mL

Q: And the “Concentration of sertraline” value ([3]; Safflower oil 50 mgA/mL, 1 mL into 10 mL 0.1 N HCl, 120 minutes)?
A: 0.48 mgA/mL

Q: And the “Concentration of sertraline” value ([3]; Safflower oil 50 mgA/mL, 1 mL into 10 mL phosphate buffered saline pH 5.8, 120 minutes)?
A: 0.19 mgA/mL

Q: What about the Precipitation of sertraline ([3]; solution in safflower oil added to phosphate buffered saline) of the same compound?
A: little or no precipitation

Q: And the “Observed Concentration after Dilution in Saline after 2 hr” value ([4]; vehicle Polysorbate-80, 50 mgA/ml in vehicle, 1 ml into 15 ml 0.9% NaCl)?
A: 3.1 mgA/ml

Q: And the “Equilibrium solubility in Miglyol 810” value [5]?
A: >50 mgA/ml

Q: What does the source list for CN[C@H]1CC[C@@H](c2ccc(Cl)c(Cl)c2)c2ccccc21 [sertraline]?
A: Intrinsic absorption rate constant (ARC) [6]: greater than 0.025 min^−1; Precipitation of sertraline ([3]; PEG 400 solution added into either 0.1 N HCl or phosphate buffered saline): precipitation of a large proportion of sertraline; Portion of sertraline remaining in solution ([3]; vehicle Capmul-MCM, 0.1 N HCl or phosphate buffered saline): > 95 % of added amount; Tmax (clinical): < 1.5 h; Absolute oral bioavailability [7]: 54%; Precipitation upon addition to a NaCl solution ([4]; PEG400 solution of sertraline): a portion of the sertraline precipitates; Precipitation upon addition to a NaCl solution ([4]; Polysorbate-80 solution of sertraline): no precipitation occurs; AUCO-LAST ([8]; Ileocecal Infusion of solution): 727.1 ng·h/mL; AUCO-LAST ([8]; Oral Tablet (two 100 mg Zoloft tablets)): 1174.5 ng·h/mL; AUCO-LAST ([8]; Stomach Infusion of solution): 923.1 ng·h/mL

Q: Which solubility (physchem) does the source give for CN[C@H]1CC[C@@H](c2ccc(Cl)c(Cl)c2)c2ccccc21 [Hydrochloride, sertraline hydrochloride] here?
A: ~3000 µg/mL

Q: What about the “Equilibrium solubility in Miglyol 810” value ([5]; hydrochloride) of the same compound?
A: greater than 0.1 mgA/ml

Q: With CN[C@H]1CC[C@@H](c2ccc(Cl)c(Cl)c2)c2ccccc21 [Lactate, sertraline lactate] as the compound, how does the “State of saturated solution at physiological chloride concentrations” value [2] read?
A: thick pasty solid which does not flow

— patent US20030133974A1 (priority 1997, published 2003)
